Experimental findings from ChEMBL document CHEMBL1212818, “Polyamines inhibit carbonic anhydrases by anchoring to the zinc-coordinated water molecule” (J Med Chem, 2010) are described below.

Some targets named below: Carbonic anhydrase 14 (Homo sapiens, UniProt Q9ULX7); Carbonic anhydrase 4 (Homo sapiens, UniProt P22748); Carbonic anhydrase 3 (Homo sapiens, UniProt P07451); Carbonic anhydrase 6 (Homo sapiens, UniProt P23280); Carbonic anhydrase 7 (Homo sapiens, UniProt P43166); Carbonic anhydrase 2 (Homo sapiens, UniProt P00918); Carbonic anhydrase 9 (Homo sapiens, UniProt Q16790); Carbonic anhydrase 12 (Homo sapiens, UniProt O43570); Carbonic anhydrase 1 (Homo sapiens, UniProt P00915); Carbonic anhydrase 13 (Mus musculus, UniProt Q9D6N1).

The target of test [1] is Carbonic anhydrase 5B, mitochondrial (Homo sapiens, UniProt Q9Y2D0).
The target of the next test is T1, Carbonic anhydrase 15 (Mus musculus, UniProt Q99N23).
T1 sequence (Q99N23 whole entry): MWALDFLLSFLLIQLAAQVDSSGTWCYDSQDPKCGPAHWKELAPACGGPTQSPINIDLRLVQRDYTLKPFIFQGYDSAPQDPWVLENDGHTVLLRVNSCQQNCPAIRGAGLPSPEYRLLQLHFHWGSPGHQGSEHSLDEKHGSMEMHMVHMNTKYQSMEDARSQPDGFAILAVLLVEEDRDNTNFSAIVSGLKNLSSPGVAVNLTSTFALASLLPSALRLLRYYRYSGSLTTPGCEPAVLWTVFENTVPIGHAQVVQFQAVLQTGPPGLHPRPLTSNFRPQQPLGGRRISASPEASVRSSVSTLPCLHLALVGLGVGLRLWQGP

The target in test [2] is Carbonic anhydrase 5A, mitochondrial (Homo sapiens, UniProt P35218).
Sequence of Carbonic anhydrase 5A, mitochondrial (P35218 whole entry): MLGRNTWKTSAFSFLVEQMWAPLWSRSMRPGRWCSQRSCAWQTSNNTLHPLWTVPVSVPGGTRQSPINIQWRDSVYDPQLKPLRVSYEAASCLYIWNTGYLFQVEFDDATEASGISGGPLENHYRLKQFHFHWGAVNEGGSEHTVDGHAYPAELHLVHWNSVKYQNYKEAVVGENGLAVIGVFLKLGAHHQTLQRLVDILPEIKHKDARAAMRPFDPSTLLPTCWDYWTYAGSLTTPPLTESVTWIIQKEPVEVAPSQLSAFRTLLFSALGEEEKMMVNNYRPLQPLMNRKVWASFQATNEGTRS

Sequence of Carbonic anhydrase 1 (P00915 whole entry): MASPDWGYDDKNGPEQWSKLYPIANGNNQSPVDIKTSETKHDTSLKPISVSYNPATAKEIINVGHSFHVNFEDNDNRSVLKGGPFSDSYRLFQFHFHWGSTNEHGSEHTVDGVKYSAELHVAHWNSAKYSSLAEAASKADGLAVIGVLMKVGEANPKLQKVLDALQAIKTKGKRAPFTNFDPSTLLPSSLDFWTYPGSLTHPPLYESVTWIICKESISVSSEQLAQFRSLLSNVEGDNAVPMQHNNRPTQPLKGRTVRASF
Sequence of Carbonic anhydrase 12 (O43570 whole entry): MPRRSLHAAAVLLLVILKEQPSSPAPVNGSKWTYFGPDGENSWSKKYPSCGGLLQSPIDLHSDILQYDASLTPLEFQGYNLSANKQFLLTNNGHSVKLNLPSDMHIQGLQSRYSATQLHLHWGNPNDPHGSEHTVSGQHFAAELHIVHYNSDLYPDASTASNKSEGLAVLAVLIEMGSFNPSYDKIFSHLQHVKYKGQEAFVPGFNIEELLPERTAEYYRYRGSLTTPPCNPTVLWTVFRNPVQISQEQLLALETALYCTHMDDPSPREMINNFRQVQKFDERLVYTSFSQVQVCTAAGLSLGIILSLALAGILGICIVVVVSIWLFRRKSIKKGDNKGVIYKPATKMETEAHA
Sequence of Carbonic anhydrase 6 (P23280 whole entry): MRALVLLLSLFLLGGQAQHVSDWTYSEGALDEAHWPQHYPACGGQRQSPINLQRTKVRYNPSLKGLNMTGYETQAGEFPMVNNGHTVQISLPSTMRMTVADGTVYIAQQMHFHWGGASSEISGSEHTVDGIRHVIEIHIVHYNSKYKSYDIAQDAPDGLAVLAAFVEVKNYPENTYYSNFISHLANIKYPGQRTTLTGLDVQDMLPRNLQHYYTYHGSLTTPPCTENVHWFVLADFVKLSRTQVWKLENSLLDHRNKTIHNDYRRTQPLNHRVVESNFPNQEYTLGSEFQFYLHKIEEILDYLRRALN
Sequence of Carbonic anhydrase 4 (P22748 whole entry): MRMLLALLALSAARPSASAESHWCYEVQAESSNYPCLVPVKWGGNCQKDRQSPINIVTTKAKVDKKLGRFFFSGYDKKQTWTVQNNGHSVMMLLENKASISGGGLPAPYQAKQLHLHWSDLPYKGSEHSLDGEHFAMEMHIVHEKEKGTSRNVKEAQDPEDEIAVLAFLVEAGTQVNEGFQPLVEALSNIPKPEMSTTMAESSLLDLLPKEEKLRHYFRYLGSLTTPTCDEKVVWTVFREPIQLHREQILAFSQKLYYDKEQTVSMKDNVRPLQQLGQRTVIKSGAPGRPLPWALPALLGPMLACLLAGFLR
Sequence of Carbonic anhydrase 14 (Q9ULX7 whole entry): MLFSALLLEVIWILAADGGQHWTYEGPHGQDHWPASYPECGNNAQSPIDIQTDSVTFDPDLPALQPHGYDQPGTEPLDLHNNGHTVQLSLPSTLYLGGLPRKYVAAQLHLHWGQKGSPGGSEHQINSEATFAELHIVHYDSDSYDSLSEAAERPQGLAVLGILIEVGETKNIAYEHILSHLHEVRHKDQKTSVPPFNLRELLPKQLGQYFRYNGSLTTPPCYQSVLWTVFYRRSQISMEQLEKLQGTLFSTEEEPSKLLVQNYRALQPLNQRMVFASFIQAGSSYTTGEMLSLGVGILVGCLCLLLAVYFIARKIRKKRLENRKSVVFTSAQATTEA
Sequence of Carbonic anhydrase 13 (Q9D6N1 whole entry): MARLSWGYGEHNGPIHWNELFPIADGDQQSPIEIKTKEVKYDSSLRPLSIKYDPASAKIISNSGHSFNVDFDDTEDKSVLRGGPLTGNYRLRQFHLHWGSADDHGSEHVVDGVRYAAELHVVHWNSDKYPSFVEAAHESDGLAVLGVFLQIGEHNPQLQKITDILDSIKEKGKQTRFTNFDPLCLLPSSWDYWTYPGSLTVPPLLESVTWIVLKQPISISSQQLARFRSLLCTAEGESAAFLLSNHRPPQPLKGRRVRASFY
Sequence of Carbonic anhydrase 3 (P07451 whole entry): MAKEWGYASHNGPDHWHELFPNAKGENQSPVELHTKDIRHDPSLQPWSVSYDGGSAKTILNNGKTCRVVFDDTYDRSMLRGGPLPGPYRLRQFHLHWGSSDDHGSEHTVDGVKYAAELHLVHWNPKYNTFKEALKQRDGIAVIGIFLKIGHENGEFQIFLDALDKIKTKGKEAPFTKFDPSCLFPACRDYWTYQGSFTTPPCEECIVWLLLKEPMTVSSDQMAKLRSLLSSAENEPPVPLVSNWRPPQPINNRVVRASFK
Sequence of Carbonic anhydrase 7 (P43166 whole entry): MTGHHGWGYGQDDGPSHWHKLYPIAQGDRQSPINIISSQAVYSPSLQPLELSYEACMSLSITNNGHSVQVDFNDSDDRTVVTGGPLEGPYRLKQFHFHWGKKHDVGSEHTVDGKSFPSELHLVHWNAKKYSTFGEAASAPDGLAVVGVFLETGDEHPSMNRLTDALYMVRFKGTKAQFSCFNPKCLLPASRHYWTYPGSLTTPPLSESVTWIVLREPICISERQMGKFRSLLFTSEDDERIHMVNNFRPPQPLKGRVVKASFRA
Sequence of Carbonic anhydrase 5B, mitochondrial (Q9Y2D0 whole entry): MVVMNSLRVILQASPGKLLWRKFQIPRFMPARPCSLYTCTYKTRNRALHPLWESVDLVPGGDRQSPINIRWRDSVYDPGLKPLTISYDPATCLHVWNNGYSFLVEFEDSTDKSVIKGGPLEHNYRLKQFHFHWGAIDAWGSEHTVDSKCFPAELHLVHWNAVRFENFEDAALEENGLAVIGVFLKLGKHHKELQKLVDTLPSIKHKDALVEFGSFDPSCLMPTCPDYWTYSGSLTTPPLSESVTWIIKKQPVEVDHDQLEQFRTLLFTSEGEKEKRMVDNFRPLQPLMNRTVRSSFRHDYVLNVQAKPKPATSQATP

With `NCCNCCNCCN` [TRIENTINE], the Ki – broadly, a dissociation constant, usually derived from enzyme kinetics or from competition with a known ligand – in test [1] came out at 49 µM; on Carbonic anhydrase 14, 12.1 µM; at Carbonic anhydrase 4 it was 35 µM; on Carbonic anhydrase 15, 59 µM; at Carbonic anhydrase 3, 48 µM; at Carbonic anhydrase 6 it was 43 µM. The Ki was found to be 45 µM at Carbonic anhydrase 7; 64 µM at Carbonic anhydrase 2; 38 µM in test [2]; 39 µM at Carbonic anhydrase 9; 57 µM on Carbonic anhydrase 12; 100 µM at Carbonic anhydrase 1. For the same compound, at Carbonic anhydrase 13, the affinity, expressed as Ki, was 52 µM.
